Laboratory results from patent US20240384350A1, “METHODS OF TREATING CANCER WITH KINASE INHIBITORS” (BOARD OF REGENTS, THE UNIVERSITY OF TEXAS SYSTEM, priority 2021, published 2024).

Tests used:
Test in all cases: Ba/F3 drug screening, Cell Titer Glo, IC50 Mut/WT
Type in all cases: cell-based
EGFR L833F = target: T1, EGFR L833F (Homo sapiens, UniProt P00533, L833F); details: Classical-Like, 72 hours
T1 construct: expressed in transfected cells; host or cells: Ba/F3 cells, retroviral pBabe-Puro vector

EGFR L833V = target: T2, EGFR L833V (Homo sapiens, UniProt P00533, L833V); details: Classical-Like, 72 hours
T2 construct: expressed in transfected cells; host or cells: Ba/F3 cells, retroviral pBabe-Puro vector
Method: (§1) Data represent the ratio of the IC50 value for a given TKI for cells with a classical-like EGFR mutation to the IC50 value for cells with wildtype EGFR.
(§2) Ba/F3 cell generation, drug screening, and IC50 approximations. Ba/F3 cells were obtained as a gift from Dr. Gordon Mills (MD Anderson Cancer Center), and maintained in RPMI (Sigma) containing 10% FBS, 1% penicillin/streptomycin, and 10 ng/ml recombinant mIL-3 (R&D Biosystems). To establish stable Ba/F3 cell lines, Ba/F3 cells were transduced with retroviruses containing mutant EGFR plasmids for 12-24 hours.
(§3) After 48-72 hours of transduction, 2 μg/ml puromycin (Invitrogen) was added to Ba/F3 cell lines in complete RPMI. To select for EGFR positive cell lines, cells were stained with PE-EGFR (Biolegend) and sorted by FACS. After sorting, EGFR positive cells were maintained in RPMI containing 10% FBS, 1% penicillin/streptomycin, and 1 ng/ml EGF to support cell viability. […] Shortly, cells were plated in 384-well plates (Greiner Bio-One) at 2000-3000 cells per well in technical triplicate. Seven different concentrations of TKIs or DMSO vehicle were added to reach a final volume of 40 μL per well. After 72 hours, 11 μL of Cell Titer Glo (Promega) was added to each well. Plates were incubated for a minimum of 10 minutes, and bioluminescence was determined using a FLUOstar OPTIMA plate reader (BMG LABTECH). Raw bioluminescence values were normalized to DMSO control treated cells, and values were plotted in GraphPad Prism. […] Drug screens were performed in technical triplicate on each plate and either duplicate or triplicate biological replicates.

EGFR L858R S784F = target: T3, EGFR L858R S784F (Homo sapiens, UniProt P00533, L858R/S784F); details: Classical-Like, 72 hours
T3 construct: expressed in transfected cells; host or cells: Ba/F3 cells, retroviral pBabe-Puro vector (vector made by GeneScript from EGFR L858R)

EGFR S811F = target: T4, EGFR S811F (Homo sapiens, UniProt P00533, S811F); details: Classical-Like, 72 hours
T4 construct: expressed in transfected cells; host or cells: Ba/F3 cells, retroviral pBabe-Puro vector (vector made by GeneScript from EGFR WT)
Method: as §1, §2, §3

EGFR A767insASV = target: T5, EGFR A767insASV (Homo sapiens, UniProt P00533, DUP767-769); details: Ex20, 72 hours
T5 construct: expressed in transfected cells; host or cells: Ba/F3 cells, retroviral pBabe-Puro vector
Method: (§4) Data represent the ratio of the IC50 value for a given TKI for cells with an ex20ins EGFR mutation to the IC50 value for cells with wildtype EGFR.
as §2
(§5) After 48-72 hours of transduction, 2 μg/ml puromycin (Invitrogen) was added to Ba/F3 cell lines in complete RPMI. To select for EGFR positive cell lines, cells were stained with PE-EGFR (Biolegend) and sorted by FACS. After sorting, EGFR positive cells were maintained in RPMI containing 10% FBS, 1% penicillin/streptomycin, and 1 ng/ml EGF to support cell viability. Drug screening was performed as previously described^41,42. Shortly, cells were plated in 384-well plates (Greiner Bio-One) at 2000-3000 cells per well in technical triplicate. Seven different concentrations of TKIs or DMSO vehicle were added to reach a final volume of 40 μL per well. After 72 hours, 11 μL of Cell Titer Glo (Promega) was added to each well. Plates were incubated for a minimum of 10 minutes, and bioluminescence was determined using a FLUOstar OPTIMA plate reader (BMG LABTECH). Raw bioluminescence values were normalized to DMSO control treated cells, and values were plotted in GraphPad Prism. […] Drug screens were performed in technical triplicate on each plate and either duplicate or triplicate biological replicates. […] Statistical differences between groups were determined by ANOVA as described in the figure legends.

EGFR D770insNPG = target: T6, EGFR D770insNPG (Homo sapiens, UniProt P00533, INS770NPG); details: Ex20, 72 hours
T6 construct: expressed in transfected cells; host or cells: Ba/F3 cells, retroviral pBabe-Puro vector
Method: as §4, §2, §5

EGFR H773insNPH = target: T7, EGFR H773insNPH (Homo sapiens, UniProt P00533, INS773NPH); details: Ex20, 72 hours
T7 construct: expressed in transfected cells; host or cells: Ba/F3 cells, retroviral pBabe-Puro vector
Method: as §4, §2, §5

EGFR S768I/T790M = target: T8, EGFR S768I/T790M (Homo sapiens, UniProt P00533, S768I/T790M); details: T790M-like-3S, 72 hours
T8 construct: expressed in transfected cells; host or cells: Ba/F3
Method: (§6) Data represent the ratio of the IC50 value for a given TKI for cells with a T790M-like-3S EGFR mutation to the IC50 value for cells with wildtype EGFR.
as §2
(§7) After 48-72 hours of transduction, 2 μg/ml puromycin (Invitrogen) was added to Ba/F3 cell lines in complete RPMI. To select for EGFR positive cell lines, cells were stained with PE-EGFR (Biolegend) and sorted by FACS. After sorting, EGFR positive cells were maintained in RPMI containing 10% FBS, 1% penicillin/streptomycin, and 1 ng/ml EGF to support cell viability. Drug screening was performed as previously described^41,42. Shortly, cells were plated in 384-well plates (Greiner Bio-One) at 2000-3000 cells per well in technical triplicate. Seven different concentrations of TKIs or DMSO vehicle were added to reach a final volume of 40 μL per well. After 72 hours, 11 μL of Cell Titer Glo (Promega) was added to each well. Plates were incubated for a minimum of 10 minutes, and bioluminescence was determined using a FLUOstar OPTIMA plate reader (BMG LABTECH). Raw bioluminescence values were normalized to DMSO control treated cells, and values were plotted in GraphPad Prism. […] Drug screens were performed in technical triplicate on each plate and either duplicate or triplicate biological replicates.

EGFR L858R T790M V843I = target: T9, EGFR L858R T790M V843I (Homo sapiens, UniProt P00533, L858R/T790M/V843I); details: T790M-like-3S, 72 hours
T9 construct: expressed in transfected cells; host or cells: Ba/F3
Method: as §6, §2, §7

EGFR Ex19del/T790M/G724S = target: T10, EGFR Ex19del/T790M/G724S (Homo sapiens, UniProt P00533, DEL746-750/G724S/T790M); details: T790M-like-3S, 72 hours
T10 construct: expressed in transfected cells; host or cells: Ba/F3
Method: as §6, §2, §7

EGFR L718Q T790M = target: T11, EGFR L718Q T790M (Homo sapiens, UniProt P00533, L718Q/T790M); details: T790M-like-3R, 72 hours
T11 construct: expressed in transfected cells; host or cells: Ba/F3
Method: (§8) Data represent the ratio of the IC50 value for a given TKI for cells with a T790M-like-3R EGFR mutation to the IC50 value for cells with wildtype EGFR.
as §2
(§9) After 48-72 hours of transduction, 2 μg/ml puromycin (Invitrogen) was added to Ba/F3 cell lines in complete RPMI. To select for EGFR positive cell lines, cells were stained with PE-EGFR (Biolegend) and sorted by FACS. After sorting, EGFR positive cells were maintained in RPMI containing 10% FBS, 1% penicillin/streptomycin, and 1 ng/ml EGF to support cell viability. […] Shortly, cells were plated in 384-well plates (Greiner Bio-One) at 2000-3000 cells per well in technical triplicate. Seven different concentrations of TKIs or DMSO vehicle were added to reach a final volume of 40 μL per well. After 72 hours, 11 μL of Cell Titer Glo (Promega) was added to each well. Plates were incubated for a minimum of 10 minutes, and bioluminescence was determined using a FLUOstar OPTIMA plate reader (BMG LABTECH). Raw bioluminescence values were normalized to DMSO control treated cells, and values were plotted in GraphPad Prism. […] Drug screens were performed in technical triplicate on each plate and either duplicate or triplicate biological replicates. […] Statistical differences between groups were determined by ANOVA as described in the figure legends.

EGFR L858R/T790M/L718Q = target: T12, EGFR L858R/T790M/L718Q (Homo sapiens, UniProt P00533, L718Q/L858R/T790M); details: T790M-like-3R, 72 hours
T12 construct: expressed in transfected cells; host or cells: Ba/F3
Method: as §8, §2, §9

EGFR L858R T790M L718V = target: T13, EGFR L858R T790M L718V (Homo sapiens, UniProt P00533, L718V/L858R/T790M); details: T790M-like-3R, 72 hours
T13 construct: expressed in transfected cells; host or cells: Ba/F3

EGFR E709A G719S = target: T14, EGFR E709A G719S (Homo sapiens, UniProt P00533, E709A/G719S); details: Ba/F3 cells, EGFR E709A G719S (PACC), Mut/WT
T14 construct: expressed in transfected cells; host or cells: Ba/F3
Method: (§10) Data represent the ratio of the IC50 value for a given TKI for cells with a PACC EGFR mutation to the IC50 value for cells with wildtype EGFR.
as §2, §7

EGFR L718Q = target: T15, EGFR L718Q (Homo sapiens, UniProt P00533, L718Q); details: Ba/F3 cells, EGFR L718Q (PACC), Mut/WT
T15 construct: expressed in transfected cells; host or cells: Ba/F3

EGFR K757R = target: T16, EGFR K757R (Homo sapiens, UniProt P00533, K757R); details: Ba/F3 cells, EGFR K757R (PACC), Mut/WT
T16 construct: expressed in transfected cells; host or cells: Ba/F3

EGFR S768I = target: T17, EGFR S768I (Homo sapiens, UniProt P00533, S768I); details: Ba/F3 cells, EGFR S768I (PACC), Mut/WT
T17 construct: expressed in transfected cells; host or cells: Ba/F3
Method: as §10, §2, §5

EGFR V769L = target: T18, EGFR V769L (Homo sapiens, UniProt P00533, V769L); details: Ba/F3 cells, EGFR V769L (PACC), Mut/WT
T18 construct: expressed in transfected cells; host or cells: Ba/F3
Method: as §10, §2, §7

EGFR V774M = target: T19, EGFR V774M (Homo sapiens, UniProt P00533, V774M); details: Ba/F3 cells, EGFR V774M (PACC), Mut/WT
T19 construct: host or cells: Ba/F3

EGFR R776H = target: T20, EGFR R776H (Homo sapiens, UniProt P00533, R776H); details: Ba/F3 cells, EGFR R776H (PACC), Mut/WT
T20 construct: host or cells: Ba/F3
Method: as §10, §2, §7

EGFR R776C = target: T21, EGFR R776C (Homo sapiens, UniProt P00533, R776C); details: Ba/F3 cells, EGFR R776C (PACC), Mut/WT
T21 construct: host or cells: Ba/F3

EGFR L858R L718Q = target: T22, EGFR L858R L718Q (Homo sapiens, UniProt P00533, L718Q/L858R); details: Ba/F3 cells, EGFR L858R L718Q (PACC), Mut/WT
T22 construct: host or cells: Ba/F3

EGFR Ex19del/L792H = target: T23, EGFR Ex19del/L792H (Homo sapiens, UniProt P00533, DEL746-750/L792H); details: Ba/F3 cells, EGFR Ex19del/L792H (PACC), Mut/WT
T23 construct: expressed in transfected cells; host or cells: Ba/F3

EGFR L858R G724S = target: T24, EGFR L858R G724S (Homo sapiens, UniProt P00533, G724S/L858R); details: Ba/F3 cells, EGFR L858R G724S (PACC), Mut/WT
T24 construct: expressed in transfected cells; host or cells: Ba/F3 (retroviral transduction, pBabe-Puro based vectors)
Method: as §10, §2, §7

EGFR Ex19del T854I = target: T25, EGFR Ex19del T854I (Homo sapiens, UniProt P00533, DEL746-750/T854I); details: Ba/F3 cells, EGFR Ex19del T854I (PACC), Mut/WT
T25 construct: expressed in transfected cells; host or cells: Ba/F3 (retroviral transduction, pBabe-Puro based vectors)

Row | SMILES | ratio of IC50 for cells with mutant EGFR to IC50 for cells with wildtype EGFR (Mut/WT) (EGFR L833F) | ratio of IC50 for cells with mutant EGFR to IC50 for cells with wildtype EGFR (Mut/WT) (EGFR L833V) | ratio of IC50 for cells with mutant EGFR to IC50 for cells with wildtype EGFR (Mut/WT) (EGFR L858R S784F) | ratio of IC50 for cells with mutant EGFR to IC50 for cells with wildtype EGFR (Mut/WT) (EGFR S811F) | ratio of IC50 for cells with mutant EGFR to IC50 for cells with wildtype EGFR (Mut/WT) (EGFR A767insASV) | ratio of IC50 for cells with mutant EGFR to IC50 for cells with wildtype EGFR (Mut/WT) (EGFR D770insNPG) | ratio of IC50 for cells with mutant EGFR to IC50 for cells with wildtype EGFR (Mut/WT) (EGFR H773insNPH) | ratio of IC50 for cells with mutant EGFR to IC50 for cells with wildtype EGFR (Mut/WT) (EGFR S768I/T790M) | ratio of IC50 for cells with mutant EGFR to IC50 for cells with wildtype EGFR (Mut/WT) (EGFR L858R T790M V843I) | ratio of IC50 for cells with mutant EGFR to IC50 for cells with wildtype EGFR (Mut/WT) (EGFR Ex19del/T790M/G724S) | ratio of IC50 for cells with mutant EGFR to IC50 for cells with wildtype EGFR (Mut/WT) (EGFR L718Q T790M) | ratio of IC50 for cells with mutant EGFR to IC50 for cells with wildtype EGFR (Mut/WT) (EGFR L858R/T790M/L718Q) | ratio of IC50 for cells with mutant EGFR to IC50 for cells with wildtype EGFR (Mut/WT) (EGFR L858R T790M L718V) | ratio of the IC50 value for cells with a PACC EGFR mutation to the IC50 value for cells with wildtype EGFR (EGFR E709A G719S) | ratio of the IC50 value for cells with a PACC EGFR mutation to the IC50 value for cells with wildtype EGFR (EGFR L718Q) | ratio of the IC50 value for cells with a PACC EGFR mutation to the IC50 value for cells with wildtype EGFR (EGFR K757R) | ratio of the IC50 value for cells with a PACC EGFR mutation to the IC50 value for cells with wildtype EGFR (EGFR S768I) | ratio of the IC50 value for cells with a PACC EGFR mutation to the IC50 value for cells with wildtype EGFR (EGFR V769L) | ratio of the IC50 value for cells with a PACC EGFR mutation to the IC50 value for cells with wildtype EGFR (EGFR V774M) | ratio of the IC50 value for cells with a PACC EGFR mutation to the IC50 value for cells with wildtype EGFR (EGFR R776H) | further results
1 | C=CC(=O)Nc1cc(Nc2nccc(-c3c[nH]c4ccccc34)n2)c(OC)cc1N(C)CCN(C)C [AZ5104] | 0.7284 | 0.4446 | 0.0429 | 0.002871 | 4.661 | 1.976 | 3.997 | 1.619 | 0.6934 | 1.673 | 26.6 | 29.86 | 19.66 | 0.797 | 11.32 | 0.1894 | 1.361 | 1.367 | 0.5635 | 3.409 | ratio of the IC50 value for cells with a PACC EGFR mutation to the IC50 value for cells with wildtype EGFR (EGFR R776C): 0.1019; ratio of the IC50 value for cells with a PACC EGFR mutation to the IC50 value for cells with wildtype EGFR (EGFR L858R L718Q): 1.635; ratio of the IC50 value for cells with a PACC EGFR mutation to the IC50 value for cells with wildtype EGFR (EGFR Ex19del/L792H): 1.778; ratio of the IC50 value for cells with a PACC EGFR mutation to the IC50 value for cells with wildtype EGFR (EGFR L858R G724S): 0.001759; ratio of the IC50 value for cells with a PACC EGFR mutation to the IC50 value for cells with wildtype EGFR (EGFR Ex19del T854I): 1.699
2 | C=CC(=O)Nc1cc(Nc2ncc(C(=O)OC(C)C)c(-c3cn(C)c4ccccc34)n2)c(OC)cc1N(C)CCN(C)C [TAK-788 (mobocertinib), mobocertinib] | 1.233 | 0.1367 | 0.001484 | 0.003195 | 1.553 | 1.211 | 0.2952 | 10.82 | 1.649 | 3.12 | 43.09 | 149.2 | 5.796 | 1.298 | 16.38 | 1.563 | 0.7766 | 3.454 | 1.453 | 2.853 | ratio of the IC50 value for cells with a PACC EGFR mutation to the IC50 value for cells with wildtype EGFR (EGFR R776C): 0.04235; ratio of the IC50 value for cells with a PACC EGFR mutation to the IC50 value for cells with wildtype EGFR (EGFR L858R L718Q): 2.996; ratio of the IC50 value for cells with a PACC EGFR mutation to the IC50 value for cells with wildtype EGFR (EGFR Ex19del/L792H): 6.547; ratio of the IC50 value for cells with a PACC EGFR mutation to the IC50 value for cells with wildtype EGFR (EGFR L858R G724S): 0.01089; ratio of the IC50 value for cells with a PACC EGFR mutation to the IC50 value for cells with wildtype EGFR (EGFR Ex19del T854I): 4.794
